Laboratory results from patent publication US8673371B2, “Composition for treating vitiligo or canities comprising extract from sophora japonica as active ingredient” (Keimyung University Industry Academic Cooperation Foundation, priority 2010, dated 2014).

Legend:
[1] = Electron donating ability (Blois' method, DPPH)
Description: Electron donating ability was measured according to the Blois' method (Blois 1958). Freeze-dried powder of Sophora japonica methanol extract was dissolved in DMSO at concentrations of 100, 500 and 1,000 μg/mL. After taking 1 mL to a test tube and adding 4 mL of 4×10^−4 M DPPH solution, followed by agitating in a water bath of 60° C. for 10 seconds and allowing to stand at room temperature for 20 minutes, absorbance was measured at 525 nm. For the non-extract-treated group, 1 mL of methanol was added instead of the sample. Electron donating ability was calculated from the difference in absorbance relative to the non-treated group. The synthetic antioxidant BHT was used as positive control.

Melan-a cells [2] = assay: Melanin producing ability; format: cell-based, C57BL/6 mouse; conditions: 12.5 μg/mL
Description: Then, after treating again with the Sophora japonica methanol extract, the cells were further cultured for 72 hours. After dissolving melanin with 1 N NaOH solution, absorbance was measured at 490 nm. IBMX was used as positive control.

MITF-M mRNA = assay: RT-PCR, expression of MITF-M mRNA; format: cell-based, C57BL/6 mouse; conditions: 12.5 μg/mL, Melan-a cells
Description: (§1) Total RNA was prepared using Trizol reagent (Invitrogen, Caylsbad, Calif.) according to the manufacturer's instructions. 5 μg of total RNA was subjected to reverse transcription with 8 μL of M-MLV RT 5× buffer, 3 μL of 10 mM dNTPs, 0.45 μL of 10,000 U RNase inhibitor, 0.3 μL of 50,000 U M-MLV reverse transcriptase (Promega, Madison, USA) and 1.5 μL of 50 pmol/μL oligo dT (Bioneer, Daejeon, Korea). Single-stranded cDNA was amplified by PCR in a reaction solution containing 4 μL of 5× green Go Taq flexi buffer, 0.4 μL of 10 mM dNTPs, 0.1 μL of 500 U Taq polymerase, 1.2 μL of 25 mM MgCl2 (Promega, Madison, USA) and 0.4 μL of 20 pmol/μL sense and antisense primers of tyrosinase, […] or β-actin. Sequences of the primers used in the PCR and expected PCR product size are shown in Table 1. β-actin was used as internal standard (51° C., 30 cycles), and test substances were tyrosinase (56° C., 28 cycles), TRP-1 (56° C., 28 cycles), TRP-2 (64° C., 28 cycles) and MITF-M (54° C., 30 cycles). The PCR product was analyzed by electrophoresis on 1.2% agarose gel.

Melan-a cells [3] = conditions: mouse, 48 h
Description: Melan-a cells, which are immortalized cells derived from C57BL/6 mouse, were cultured in a 37° C., 10% CO2 incubator using RPMI-1640 medium containing 10% fetal bovine serum (FBS) 1% penicillin/streptomycin (P/S) and 200 nM 12-O-tetradecanoylphorbol 13-acetate (TPA).
The MTT assay is a typical technique of measuring cell viability. Upon absorption into cells, 3-(4,5-Dimethylthiazol-2-yl)-2,5-diphenyltetrazolium bromide (MTT) is reduced by succinate dehydronase in mitochondria to formazan. Thus, accumulation of this substance in cells is a measure of mitochondrial activity or, in a broader sense, cell activity. Melan-a cells were stabilized in RPMI-1640 medium containing 10% FBS, 1% P/S and 200 nM TPA in a 10% CO2 incubator at 37° C. for 48 hours before carrying out experiment. The Melan-a cells were seeded on a 96 well plate (0.5×10^4 cells/well) and cultured in a 10% CO2 incubator at 37° C. for 24 hours. […] After dissolving the cells in a plate shaker for 15 minutes, absorbance was measured at 540 nm using an ELISA reader. Cell proliferation was calculated according to the following equation: Cell proliferation (%)=(Absorbance of extract-treated group/Absorbance of non-extract-treated group)×100.

tyrosinase [4] = assay: Intracellular tyrosinase activity; format: cell-based, C57BL/6 mouse; conditions: 12.5 μg/mL, Melan-a cells
Description: 4-5. […] Then, after removing the medium and washing with PBS, the cells were lysed by adding 200 μL of 1% Triton X-100 solution. The lysed cells were transferred to an e-tube and vortexed on ice with 10-minute intervals. After about 1 hour, centrifuge was carried out at 4° C. and 14,000 rpm for 20 minutes. The supernatant was subjected to tyrosinase activity measurement. Absorbance was measured using a protein assay solution (Bio-Rad, USA), and the protein quantity was calculated. Cell extract containing 40 μg of protein was mixed with the test substance to a total volume of 100 μL. After adding 100 μL of L-DOPA, followed by incubation in a 10% CO2 incubator at 37° C. for 60 minutes, absorbance was measured at 490 nm. IBMX was used as positive control.

TRP-2 mRNA = assay: RT-PCR, expression of TRP-2 mRNA; format: cell-based, C57BL/6 mouse; conditions: 12.5 μg/mL, Melan-a cells
Description: as §1

tyrosinase mRNA = assay: RT-PCR, expression of tyrosinase mRNA; format: cell-based, C57BL/6 mouse; conditions: 12.5 μg/mL, Melan-a cells
Description: as §1

TRP-1 mRNA = assay: RT-PCR, expression of TRP-1 mRNA; format: cell-based, C57BL/6 mouse; conditions: 12.5 μg/mL, Melan-a cells, not significant
Description: as §1

tyrosinase [5] = target: T1, tyrosinase (Mus musculus, UniProt P11344); assay: Activity of cell-extracted tyrosinase; format: biochemical, C57BL/6 mouse; conditions: 12.5 μg/mL, Melan-a cell extract
T1 construct: the cells were lysed by adding 200 μL of 1% Triton X-100 solution; endogenous in cells; host or cells: Melan-a cells (immortalized C57BL/6 mouse melanocytes)
T1 sequence (P11344 19-533): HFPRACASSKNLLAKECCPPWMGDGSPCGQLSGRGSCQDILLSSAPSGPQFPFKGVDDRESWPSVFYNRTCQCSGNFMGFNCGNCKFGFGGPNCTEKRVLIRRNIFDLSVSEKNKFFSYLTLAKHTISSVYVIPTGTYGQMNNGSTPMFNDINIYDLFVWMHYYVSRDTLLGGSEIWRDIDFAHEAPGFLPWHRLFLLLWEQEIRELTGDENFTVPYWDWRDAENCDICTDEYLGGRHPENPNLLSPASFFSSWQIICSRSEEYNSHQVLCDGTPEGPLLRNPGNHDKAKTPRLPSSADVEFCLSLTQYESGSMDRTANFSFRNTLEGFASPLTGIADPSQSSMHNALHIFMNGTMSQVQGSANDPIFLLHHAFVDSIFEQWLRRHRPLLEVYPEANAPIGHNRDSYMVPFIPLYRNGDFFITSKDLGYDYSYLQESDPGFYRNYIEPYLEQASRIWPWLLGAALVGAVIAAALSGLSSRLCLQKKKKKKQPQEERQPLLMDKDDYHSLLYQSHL
Description: After washing with PBS and lysing by adding 200 μL of 1% Triton X-100, the lysed cells were transferred to an e-tube and vortexed on ice with 10-minute intervals. After about 1 hour, centrifuge was carried out at 4° C. and 14,000 rpm for 20 minutes. 50 μL of the supernatant was mixed with 49 μL of 0.1 M phosphate buffer (pH 6.8) and 1 μL of Sophora japonica methanol extract at various concentrations (6.25, 12.5, 25 and 50 μg/mL). After allowing to stand for 1 hour, 100 μL of L-DOPA was added. Then, after incubation in a 10% CO2 incubator at 37° C. for 60 minutes, absorbance was measured at 490 nm. IBMX was used as positive control.

Row | Maximum permissible level (MPL) (Melan-a cells [3]) [µg/mL] | Higher activity of cell-extracted tyrosinase compared with the control (tyrosinase [5]) [%] | SMILES | Electron donating ability, concentration dependence ([1]; 100, 500 and 1,000 μg/mL) | Electron donating ability ([1]; at 1,000 μg/mL) [%] | Higher melanin content compared with the control (Melan-a cells [2]) [%] | Higher expression of MITF-M mRNA compared with the control (MITF-M mRNA) [%] | Higher intracellular tyrosinase activity compared with the control (tyrosinase [4]) [%] | Higher expression of TRP-2 mRNA compared with the control (TRP-2 mRNA) [%] | Higher expression of tyrosinase mRNA compared with the control (tyrosinase mRNA) [%] | Higher expression of TRP-1 mRNA compared with the control (TRP-1 mRNA) [%]
1 |  |  | Cc1cc(C(C)(C)C)c(O)c(C(C)(C)C)c1 [BHT, 2,6-di-tert-butylated hydroxytoluene] | positive (+) concentration-dependent relationship | 85.0 |  |  |  |  |  | 
2 | 12.5 | 21.2 | CC(C)Cn1c(=O)n(C)c(=O)c2[nH]cnc21 [IBMX, 3-isobutyl-1-methylxanthine] |  |  | 16.7 | 74 | 22.2 | 9 | 0.31 | 2
